Consider 1 compound from US20180318241A1, “TREATMENT OF NERVOUS SYSTEM DISORDERS USING THYROID HORMONE NEUTRAL DOSES OF RXR AGONISTS” (Io Therapeutics, Inc., priority 2015, published 2018).

“Also recorded” adds a separate entry of the source.

For series [1], the system named is cuprizone+rapamycin demyelination in C57BL/6J mice. Nature of the series: Cuprizone/rapamycin 12-week demyelination model, remyelination. It counts as in vivo, mouse. The note with it: 10 mg/kg PO daily for 6 weeks after 12 weeks CR. An excerpt:
All animals were sacrificed after 12 weeks of CR or after further 6 weeks of treatment to evaluate myelin in white matter (corpus callosum) and gray matter (hippocampus and cortex). In addition, the size of myelinated axons was quantified and the large myelinated axons were further assessed by 3D-electron microscopy (3D-EM). A total of 40 animals were included in the study, where all 40 animals received CR demyelination for 12 weeks. After demyelination, a subset (n=10) of animals are sacrificed to serve as controls to assess baseline demyelination. […] Floating brain sections are immunostained with myelin prolipid protein (PLP) to visualize and quantify myelin in gray matter, hippocampus (FIG. 16A) and cortex (FIG. 16B).

For the next series, the system named is EAE in SJL mice. The experiment in a line: EAE in SJL mice. The note with it: 50 μg i.p. every other day, day 8 to day 14. It counts as in vivo. Here is the method:
To determine whether a RXR agonist can attenuate multiple sclerosis, SJL mice were immunized to induce EAE by s.c. injection at the base of their spine with 200 μL of adjuvant containing 200 μg proteolipid proteins (139-151) (PLP peptide; Peptides International, Louisville, Ky.) and 400 μg of non-viable M. tuberculosis H37 desiccate emulsified in a mixture of incomplete Freund's adjuvant and PBS. Mice were also given 150 ng of pertussis toxin in PBS i.p. on the same day as PLP emulsion injection and 2 days later. […] Mice were scored using the scale described in Example 3.

A further series has as its target Nurr1/RXR (Homo sapiens, UniProt P19793). The experiment in a line: Permissive heterodimer transactivation assay in COS7 cells. Type of series: cell-based. An excerpt:
(§1) For PPARγ: CV-1 cells were transfected with 3×(rAOX/DR1)-tk-Luc reporter gene and an expression vector for PPARγ. For FXR:CV-1 cells were transfected with 3×(IBABP/IRI)-tk-Luc reporter gene and vectors for FXR and RXRα. For LXR:CV-1 cells were transfected with 3×(PLTP/LXRE)-tk-Luc reporter gene with vectors for LXRα or LXRβ. For Nurr1: COS7 cells were transfected with 3×NBRE-tk-luc reporter gene and full length Nurr-1 with or without full-length RXRα plasmid. […] Luciferase data were normalized to co-transfected β-gal activity. Luciferase activity was expressed as percent of maximal activity obtained using specific agonists. Rosiglitazone (PPARγ), GW4064 (FXR), T0901317 (LXR).

The test system of a further series is EAE in B6 mice. Nature of the series: EAE dose titration in B6 mice with spleen and CNS analysis. Type of series: in vivo. The note with it: 200 μg/day vs vehicle. Here is the method: A dose titration experiment was also conducted in EAE mice. EAE was induced in 28 B6 mice with MOG/CFA and PT as above. Mice were scored on day 7 as indicated above and divided into groups by score so means are as equal as possible.
At the completion of the experiment, the vehicle control and 200 μg/day groups were euthanized and spleen and CNS samples obtained.

In series [2] the test system is oligodendrocyte precursor cells (OPCs). The experiment in a line: OPC differentiation into oligodendrocytes (PLP-EGFP). It counts as cell-based, mouse.
Text: OPCs were generated from a neurosphere culture of E14.5 PLP-EGFP (on C57BL/6J background) mouse brains. […] The EGFP expressing cells were quantified with Cellomics Neuronal Profiling Algorithm.
The EGFP expressing cells in controls and all compounds were quantified with Cellomics Neuronal Profiling Algorithm.
Another series addresses T1, RXRγ (Homo sapiens, UniProt P48443).
T1 construct: an expression construct including a full length RXRα, RXRβ, or RXRγ; expressed in transfected cells; host or cells: CV-1
T1 sequence (P48443 1-463): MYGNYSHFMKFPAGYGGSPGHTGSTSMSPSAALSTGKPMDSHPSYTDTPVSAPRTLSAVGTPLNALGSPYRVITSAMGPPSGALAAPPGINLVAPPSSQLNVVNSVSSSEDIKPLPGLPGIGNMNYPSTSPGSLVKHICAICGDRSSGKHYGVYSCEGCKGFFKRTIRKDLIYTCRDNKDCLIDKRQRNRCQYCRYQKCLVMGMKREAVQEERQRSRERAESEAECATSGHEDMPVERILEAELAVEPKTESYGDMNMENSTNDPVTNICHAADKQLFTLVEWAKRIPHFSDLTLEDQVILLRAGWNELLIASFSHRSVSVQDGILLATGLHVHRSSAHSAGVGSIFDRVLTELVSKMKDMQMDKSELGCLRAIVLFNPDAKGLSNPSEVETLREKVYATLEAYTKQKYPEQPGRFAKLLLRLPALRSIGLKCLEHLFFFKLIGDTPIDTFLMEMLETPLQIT
Nature of the series: RXR homodimer transactivation assay (rCRBPII/RXRE-tk-Luc) in CV-1 cells. Type of series: cell-based.

The target in another series is RARα (Homo sapiens, UniProt P10276). The note with it: RARs (α, β, γ), at ≥1 μM. Here is the method: To determine whether a RXR agonist can mediate its effects via RXRα receptor homodimers, RXRβ receptor homodimers, RXRγ receptor homodimers, or any combination thereof, or the corresponding RAR/RXR heterodimers, receptor-mediated transactivation assays were performed. For transactivation assays assessing RXR homodimer signaling, CV-1 cells were transfected with 1) an expression construct including a full length RXRα, RXRβ, or RXRγ; and 2) a rCRBPII/RXRE-tk-Luc reporter construct that included RXR homodimer-specific RXRE/DR1 responsive element linked to a luciferase gene. For transactivation assays assessing RAR/RXR heterodimer signaling, CV-1 cells were transfected with 1) an expression construct comprising a fusion protein including an estrogen receptor (ER) DNA binding domain linked to the ligand binding domain of RARα, RARβ, or RARγ and 2) a ERE-tk-Luc reporter construct that included an estrogen receptor responsive element linked to a luciferase gene. […] Data are mean values±SE from five independent experiments.
Sequence of RARα (P10276 183-417 limits assumed, species assumed): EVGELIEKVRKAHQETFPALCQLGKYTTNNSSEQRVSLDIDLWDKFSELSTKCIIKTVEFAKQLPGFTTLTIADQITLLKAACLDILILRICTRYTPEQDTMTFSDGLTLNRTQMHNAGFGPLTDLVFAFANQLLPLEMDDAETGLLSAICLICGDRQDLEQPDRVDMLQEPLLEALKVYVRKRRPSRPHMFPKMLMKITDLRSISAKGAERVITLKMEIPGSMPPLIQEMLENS

Series [3] relates to multiple sclerosis (MS) patients. Nature of the series: Placebo-controlled clinical trial of thyroid hormone neutral doses in relapsing-remitting MS. Type of series: in vivo, human. The note with it: 30 to 180 days. As for the experimental part: Patients with relapsing-remitting MS are recruited to participate in the clinical trial and are provided informed consent describing risks and potential benefits of participation. […] Patients are dosed for a minimum of 30 days, and as long as 180 days. […] Serum T4 levels will continue to be determined on a weekly basis.
Patients are assessed for the status of myelin damage and speed of repair of demyelination in MS lesions that occur over this period of time in their brains, spinal cords, and/or optic nerves. Quantitation of myelin damage and repair is performed at baseline and periodically through the dosing, using specialized imaging methods, which specifically examine and quantitate myelin damage and repair in these parts of the nervous system. […] This compound is useful for useful for quantitating myelin repair. […] In addition to the quantitation of myelin damage and repair by imaging methods, the clinical status of the MS patients' disease progression is preliminarily evaluated using standard clinical endpoints for MS clinical trials, such as the Expanded Disability Status Scale (EDSS). The EDSS is a 10 point scale which quantitates the MS patients' levels of disability by evaluating physical activities of daily life, such as walking, swallowing, bowel and bladder function, etc.

The subject of series [4] is ethidium bromide induced demyelination of caudal cerebellar peduncles in rats. The experiment in a line: Focal ethidium bromide induced demyelination, remyelination analysis. It counts as in vivo, rat. As for the experimental part: The experiment uses rats of relatively advanced age (1 year) since such rats undergo remyelination in a less efficient manner, thereby providing data that are more relevant to the clinical treatment of human patients with multiple sclerosis or other demyelination disorders.
Focal demyelination is induced in one year old rats (approximately 300 g in weight) by injecting stereotactically 5 μl of ethidium bromide solution (0.01% vol/vol in saline) in a bilateral manner into the caudal cerebellar peduncles (CCP). […] The rats are killed on day 24 post-ethidium bromide treatment for analysis of remyelination by quantitative polymerase chain reaction (qPCR) and microscopy. Serum T4 levels are determined before initiation of treatment and weekly thereafter and at study termination.

Series [5] concerns cuprizone+rapamycin demyelination in C57BL/6J mice. It counts as in vivo. The note with it: 6 weeks concurrent with CR.
Text: Animals (8 week-old male C57BL/6J mice) were subjected to cuprizone diet plus rapamycin injections (CR) for 6 weeks to induce demyelination. […] All animals were sacrificed after 6 weeks of CR to evaluate axonal integrity and microglial/macrophage activity in the white matter (corpus callosum, CC).
A total of 50 animals were included in the study, where 43 animals received CR demyelination for 6 weeks. During demyelination, a subset (n=7) of animals were kept on normal diet to serve as naïve age-matched controls.
Another series concerns LXRα/RXR. The experiment in a line: Permissive heterodimer transactivation assay in CV-1 cells. It counts as cell-based. The note with it: 20 hr, relative to T0901317.
Text: as §1

In the next series the test system is LXRβ/RXR. The description is as above. The note with it: 20 hr, relative to T0901317. It counts as cell-based.
Text: as §1

In another series the target is T2, FXR/RXR (Homo sapiens, UniProt P19793).
T2 construct: expressed in transfected cells; host or cells: CV-1
T2 sequence (P19793 1-462): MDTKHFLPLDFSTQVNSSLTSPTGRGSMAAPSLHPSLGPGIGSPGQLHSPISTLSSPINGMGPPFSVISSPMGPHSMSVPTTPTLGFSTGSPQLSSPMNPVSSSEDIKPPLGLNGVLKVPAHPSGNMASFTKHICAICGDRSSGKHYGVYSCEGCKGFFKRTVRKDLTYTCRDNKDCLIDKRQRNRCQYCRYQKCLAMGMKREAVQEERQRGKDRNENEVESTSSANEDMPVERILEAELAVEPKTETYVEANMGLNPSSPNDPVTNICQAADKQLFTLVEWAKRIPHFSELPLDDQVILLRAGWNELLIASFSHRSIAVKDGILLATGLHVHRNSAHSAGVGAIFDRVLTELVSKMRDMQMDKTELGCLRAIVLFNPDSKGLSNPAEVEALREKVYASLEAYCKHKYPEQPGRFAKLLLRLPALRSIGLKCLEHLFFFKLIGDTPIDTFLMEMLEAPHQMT
T2 sequence (Q96RI1 1-486 partner): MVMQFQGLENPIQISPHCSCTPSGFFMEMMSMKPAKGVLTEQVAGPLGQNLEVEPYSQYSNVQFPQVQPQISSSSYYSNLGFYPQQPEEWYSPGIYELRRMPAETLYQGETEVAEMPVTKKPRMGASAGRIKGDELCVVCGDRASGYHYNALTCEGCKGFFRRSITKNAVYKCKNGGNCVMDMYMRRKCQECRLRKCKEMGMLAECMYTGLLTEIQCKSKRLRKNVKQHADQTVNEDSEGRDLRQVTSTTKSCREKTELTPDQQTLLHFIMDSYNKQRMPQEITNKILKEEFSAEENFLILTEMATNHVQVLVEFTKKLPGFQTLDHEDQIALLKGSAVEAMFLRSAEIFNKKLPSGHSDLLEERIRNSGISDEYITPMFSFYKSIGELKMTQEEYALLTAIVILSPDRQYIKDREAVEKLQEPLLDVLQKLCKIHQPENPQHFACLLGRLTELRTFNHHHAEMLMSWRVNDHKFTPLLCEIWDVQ
Described as above. It counts as cell-based. The note with it: 20 hr, relative to GW4064.
Text: as §1

Sequence of Nurr1/RXR (P43354 whole entry partner, one chain of several): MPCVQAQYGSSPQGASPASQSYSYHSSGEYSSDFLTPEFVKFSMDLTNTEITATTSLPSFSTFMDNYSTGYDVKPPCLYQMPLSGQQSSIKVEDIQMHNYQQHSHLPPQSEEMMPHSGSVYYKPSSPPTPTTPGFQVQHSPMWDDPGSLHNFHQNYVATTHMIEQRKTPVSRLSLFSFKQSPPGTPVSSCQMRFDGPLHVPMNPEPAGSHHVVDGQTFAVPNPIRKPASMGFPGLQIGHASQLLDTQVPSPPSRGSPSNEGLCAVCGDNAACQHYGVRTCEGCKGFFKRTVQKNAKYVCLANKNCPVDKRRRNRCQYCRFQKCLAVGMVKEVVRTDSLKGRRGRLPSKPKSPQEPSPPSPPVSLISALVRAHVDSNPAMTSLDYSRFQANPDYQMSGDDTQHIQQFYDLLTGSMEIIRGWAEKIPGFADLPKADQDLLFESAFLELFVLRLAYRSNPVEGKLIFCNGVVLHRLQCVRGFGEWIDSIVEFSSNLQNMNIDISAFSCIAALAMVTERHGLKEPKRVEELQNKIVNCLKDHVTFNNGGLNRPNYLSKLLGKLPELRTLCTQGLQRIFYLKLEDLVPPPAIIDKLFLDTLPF
Experimental for RXRγ: To determine whether a RXR agonist can mediate its effects via RXRα receptor homodimers, RXRβ receptor homodimers, RXRγ receptor homodimers, or any combination thereof, or the corresponding RAR/RXR heterodimers, receptor-mediated transactivation assays were performed. For transactivation assays assessing RXR homodimer signaling, CV-1 cells were transfected with 1) an expression construct including a full length RXRα, RXRβ, or RXRγ; and 2) a rCRBPII/RXRE-tk-Luc reporter construct that included RXR homodimer-specific RXRE/DR1 responsive element linked to a luciferase gene. For transactivation assays assessing RAR/RXR heterodimer signaling, CV-1 cells were transfected with 1) an expression construct comprising a fusion protein including an estrogen receptor (ER) DNA binding domain linked to the ligand binding domain of RARα, RARβ, or RARγ and 2) a ERE-tk-Luc reporter construct that included an estrogen receptor responsive element linked to a luciferase gene. The ER-RAR fusion proteins provided an accurate readout of only the transfected ER-RAR. […] Data are mean values±SE from five independent experiments.

On to `CC(/C=C/[C@@H]1C[C@]1(C)c1ccc2c(c1)C(C)(C)CCC2(C)C)=C\C(=O)O` [IRX4204, 3,7-dimethyl-6(S),7(S)-methano,7-[1,1,4,4-tetramethyl-1,2,3,4-tetrahydronaphth-7-yl]2(E),4(E) heptadienoic acid], for which the “size of myelinated axons in the corpus callosum” value in series [1] is on record as “significant increase”. Also, the “symptoms of EAE” value with EAE in SJL mice is on record as “significantly reduces the symptoms of EAE”. Besides, the “activation of the Nurr1/RXR permissive heterodimer” value on Nurr1/RXR is recorded as “selectively activates”. Besides, the “co-expression of IFNγ and IL-17A by CD4 T cells in CNS” value in the series on EAE in B6 mice is given as “not significantly different”. Also, in the series on EAE in B6 mice (spleen), the “CCR6 expression on CD4 T cells” value is reported as “lowered”; the “CD4+CD25hi cells (number)” value is on record as “reduced”; the “CD4+CD25hi cells frequency” value is on record as “not altered”; the “CD49d expression on CD4 T cells” value is given as “lowered CCR6, but not CD49d”. In the series on EAE in B6 mice (spleen), the “total number of recently activated CD4 T cells (CD69 and CD44)” value is “decreased”. Further, the “total cell number and pyknotic cells compared to controls” value in series [2] is “did not show any differences”. Also, the “OPC differentiation into oligodendrocytes (EGFP positive cells) compared to negative control (DMSO)” value in series [2] (all tested concentrations except the lowest concentration (1^−6 μM)) was “significant increase in OPC differentiation into oligodendrocytes; also recorded: dose dependent increase”. The “Efficacy (% of 1 μM IRX4204) RXRγ” value at RXRγ is 0.09 ± 0.011 % of 1 μM IRX4204. At RARα, the “activity detected at RARs” value is “minimal activity”. Moreover, the “clinical benefit (myelin imaging, EDSS, visual acuity) compared to placebo controls” value in [3] is recorded as “Substantial clinical benefit”. Further, the “Mbp and Pdgfra expression (real-time qPCR of lesion samples)” value in series [4] was “increase in Mbp expression and an increase in Pdgfra expression”. Besides, in series [4] (oral 1-10 mg/kg/day for fourteen days, relative to vehicle), the “densities of Olig2+ oligodendrocyte lineage cells and CC1+ differentiated oligodendrocytes in lesions” value is “increased”. Further, in series [5], the “levels of Iba1 staining (microglia/macrophages) in CC compared to vehicle” value is given as “no difference” and the “number of SMI32 stained axonal ovoids in CC compared to Vehicle” value is reported as “trend towards decreased number of axonal ovoids”. The “activation of LXRα/RXR heterodimer” value with LXRα/RXR is “not to transactivate; also recorded: does not activate”. Also, in the series with LXRβ/RXR, the “activation of LXRβ/RXR heterodimer” value is “not to transactivate; also recorded: does not activate”. For the same compound, the “activation of FXR/RXR heterodimer” value at FXR/RXR was “not to transactivate; also recorded: does not activate”.
